ChEMBL document CHEMBL3885861, “Open TG-GATES”

Species: Rattus norvegicus
Assay: Open TG-GATES - Regimen: Single
Assay type: toxicity, organism-based, Sprague-Dawley
Set-up: regimen Single, gender Male, age 6 weeks
Conditions: in vivo, po, 0 mg/kg, route gavage, dose level Control; for APTT / Bas / Eos / Fbg / Hb / Ht / Lym / MCHC / MCV / Mono / Neu / PT / Plat / RBC / Ret / WBC: tissue Blood; for KIDNEY_L / KIDNEY_R / KIDNEY_TOTAL: tissue Kidney; for LIVER: tissue Liver; for ALP / ALT / AST / BUN / CRE / Ca / Cl / DBIL / GLC / IP / K / LDH / Na / PL / RALB / TBIL / TC / TG / TP / gamma-GTP: tissue Plasma

## CS(=O)(=O)Nc1ccc([N+](=O)[O-])cc1Oc1ccccc1 [NIMESULIDE]
3 h
  TERMINAL_BW: 201.3 g
  APTT: 17.1 s
  Bas: 0%
  Eos: 1.4%
  Fbg: 212 mg/dL
  Hb: 14.1 g/dL
  Ht: 41.1%
  Lym: 77%
  MCHC: 34.3%
  MCV: 64.2 fL
  Mono: 6.2%
  Neu: 15.6%
  PT: 12.4 s
  Plat: 118.2 x10_4/uL
  RBC: 640.8 x10_4/ul
  Ret: 10.6%
  WBC: 89.8 x10_2/uL
  KIDNEY_L: 0.9 g
  KIDNEY_R: 0.9 g
  KIDNEY_TOTAL: 1.9 g
  LIVER: 9.7 g
  ALP: 917.4 IU/L
  ALT: 37.4 IU/L
  AST: 63.4 IU/L
  BUN: 12.4 mg/dL
  CRE: 0.5 mg/dL
  Ca: 11 mg/dL
  Cl: 105.4 meq/L
  DBIL: 0.048 mg/dL
  GLC: 197.2 mg/dL
  IP: 9.6 mg/dL
  K: 4.8 meq/L
  LDH: 65.8 IU/L
  Na: 141.8 meq/L
  PL: 133.6 mg/dL
  RALB: 3.7 g/dL
  TBIL: 0.3 mg/dL
  TC: 75 mg/dL
  TG: 57.4 mg/dL
  TP: 5.3 g/dL
  gamma-GTP: 1.6 IU/L
6 h
  TERMINAL_BW: 196.6 g
  APTT: 17.7 s
  Bas: 0%
  Eos: 1%
  Fbg: 209.6 mg/dL
  Hb: 13.6 g/dL
  Ht: 40.3%
  Lym: 72.6%
  MCHC: 33.7%
  MCV: 65.3 fL
  Mono: 7.8%
  Neu: 19%
  PT: 12.5 s
  Plat: 116.9 x10_4/uL
  RBC: 617.4 x10_4/ul
  Ret: 11.4%
  WBC: 109.3 x10_2/uL
  KIDNEY_L: 0.8 g
  KIDNEY_R: 0.9 g
  KIDNEY_TOTAL: 1.7 g
  LIVER: 8.5 g
  ALP: 832.8 IU/L
  ALT: 35.8 IU/L
  AST: 63.2 IU/L
  BUN: 12.4 mg/dL
  CRE: 0.6 mg/dL
  Ca: 10.7 mg/dL
  Cl: 105.6 meq/L
  DBIL: 0.062 mg/dL
  GLC: 188 mg/dL
  IP: 10.2 mg/dL
  K: 4.9 meq/L
  LDH: 62.6 IU/L
  Na: 140.4 meq/L
  PL: 139.6 mg/dL
  RALB: 3.7 g/dL
  TBIL: 0.4 mg/dL
  TC: 83.2 mg/dL
  TG: 52.8 mg/dL
  TP: 5.2 g/dL
  gamma-GTP: 2 IU/L
9 h
  TERMINAL_BW: 196.3 g
  APTT: 17.5 s
  Bas: 0%
  Eos: 1%
  Fbg: 204.8 mg/dL
  Hb: 13.4 g/dL
  Ht: 39.5%
  Lym: 71.6%
  MCHC: 33.9%
  MCV: 64.3 fL
  Mono: 9%
  Neu: 18.6%
  PT: 12.4 s
  Plat: 110.8 x10_4/uL
  RBC: 614 x10_4/ul
  Ret: 10.8%
  WBC: 94 x10_2/uL
  KIDNEY_L: 0.9 g
  KIDNEY_R: 1 g
  KIDNEY_TOTAL: 1.9 g
  LIVER: 8.3 g
  ALP: 898.6 IU/L
  ALT: 31.4 IU/L
  AST: 59.8 IU/L
  BUN: 12.4 mg/dL
  CRE: 0.5 mg/dL
  Ca: 10.6 mg/dL
  Cl: 106 meq/L
  DBIL: 0.028 mg/dL
  GLC: 193.6 mg/dL
  IP: 10.3 mg/dL
  K: 5 meq/L
  LDH: 79.2 IU/L
  Na: 138.4 meq/L
  PL: 128.4 mg/dL
  RALB: 4 g/dL
  TBIL: 0.3 mg/dL
  TC: 70.8 mg/dL
  TG: 47.6 mg/dL
  TP: 5.3 g/dL
  gamma-GTP: 1.2 IU/L
24 h
  TERMINAL_BW: 217.2 g
  APTT: 16.3 s
  Bas: 0%
  Eos: 1%
  Fbg: 201 mg/dL
  Hb: 13.1 g/dL
  Ht: 38.9%
  Lym: 71.6%
  MCHC: 33.7%
  MCV: 66 fL
  Mono: 10.8%
  Neu: 16.6%
  PT: 11.7 s
  Plat: 118.1 x10_4/uL
  RBC: 590.2 x10_4/ul
  Ret: 10.9%
  WBC: 107.9 x10_2/uL
  KIDNEY_L: 1 g
  KIDNEY_R: 1 g
  KIDNEY_TOTAL: 1.9 g
  LIVER: 10.4 g
  ALP: 1023 IU/L
  ALT: 35 IU/L
  AST: 62.8 IU/L
  BUN: 18.4 mg/dL
  CRE: 0.5 mg/dL
  Ca: 10.7 mg/dL
  Cl: 104.4 meq/L
  DBIL: 0.012 mg/dL
  GLC: 190.4 mg/dL
  IP: 7.8 mg/dL
  K: 4.9 meq/L
  LDH: 81.4 IU/L
  Na: 139.6 meq/L
  PL: 150.8 mg/dL
  RALB: 4.1 g/dL
  TBIL: 0.3 mg/dL
  TC: 79.8 mg/dL
  TG: 86.8 mg/dL
  TP: 5.5 g/dL
  gamma-GTP: 1.8 IU/L
